Data as given in US20100216891A1, “AROMATIC ANTIHYPERTENSIVE AGENT, AND METHOD FOR LOWERING BLOOD PRESSURE IN MAMMALS” (PANASONIC CORPORATION, priority 2008, published 2010).

Tested on: male Wister strain rats
Experiment: Test Example 1: change in blood pressure of rats on presentation of aromatic compositions to the nostril
Assay type: in vivo
Conditions: rat, aroma presented to vicinity of nostril for 10 minutes, 30 minutes after the presentation, FIG. 1
Method: Focusing attention on aromatic components contained in a Melissa essential oil, one of plant essential oils, various aromatic compositions were presented to male Wister strain rats, and evaluation of change in caudal arterial pressure before and after the presentation was conducted. The test was carried out under conditions that avoid stress which may be placed on the rat as less as possible, and thus can be kept calm in an environment of the measurement of the blood pressure.
Male Wister strain rats of 7-week old were purchased, and after one week acclimatization period, the blood pressure was measured on 8-week old. All experimental animals were kept under a 12:12 light-dark cycle (light period: from 8 AM to 8 PM), with allowing for free access to chow and drinking water.
Training for adaptation of the 7-week old rat to a holder for the blood pressure measurement was carried out for one week. […]
For three days after completing the training, change in the blood pressure was measured upon presentation of the aromatic composition to the rats. […] The blood pressures before and after 30 minutes from presenting the aromatic compositions were measured, and the changes of the blood pressures were compared. […]

Compound: CC(C)=CCCC(C)=CC=O [citral]
- change in diastolic blood pressure (caudal arterial pressure) after presentation compared with the values before the presentation: lowering of the blood pressure

Compound: C=CC(C)(O)CCC=C(C)C (centres unmarked) [linalool]
- change in diastolic blood pressure (caudal arterial pressure) after presentation compared with the values before the presentation: lowering of the blood pressure
